{
  "source": "ChEMBL document CHEMBL1201862",
  "about": "“PubChem BioAssay data set” (2004)",
  "key": {"[1]": {"biological_target": "Cytochrome P450 2C9 (Homo sapiens, UniProt P11712)", "sequence (P11712 whole entry)": "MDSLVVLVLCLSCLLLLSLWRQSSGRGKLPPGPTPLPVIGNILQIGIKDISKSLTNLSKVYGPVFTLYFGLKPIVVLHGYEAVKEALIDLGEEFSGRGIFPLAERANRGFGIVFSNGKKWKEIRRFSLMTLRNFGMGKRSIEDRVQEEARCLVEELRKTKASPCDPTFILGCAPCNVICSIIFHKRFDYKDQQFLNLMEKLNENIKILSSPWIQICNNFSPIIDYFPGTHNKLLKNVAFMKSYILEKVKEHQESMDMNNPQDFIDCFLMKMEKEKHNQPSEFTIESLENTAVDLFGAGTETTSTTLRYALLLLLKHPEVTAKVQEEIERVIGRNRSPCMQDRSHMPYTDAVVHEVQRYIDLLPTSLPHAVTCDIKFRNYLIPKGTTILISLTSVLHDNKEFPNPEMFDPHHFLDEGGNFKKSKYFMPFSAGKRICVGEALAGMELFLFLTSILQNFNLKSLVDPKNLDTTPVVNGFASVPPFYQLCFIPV"}, "[2]": {"biological_target": "T1, Tyrosine-protein phosphatase non-receptor type 7 (Homo sapiens, UniProt P35236)", "T1 sequence (P35236 whole entry)": "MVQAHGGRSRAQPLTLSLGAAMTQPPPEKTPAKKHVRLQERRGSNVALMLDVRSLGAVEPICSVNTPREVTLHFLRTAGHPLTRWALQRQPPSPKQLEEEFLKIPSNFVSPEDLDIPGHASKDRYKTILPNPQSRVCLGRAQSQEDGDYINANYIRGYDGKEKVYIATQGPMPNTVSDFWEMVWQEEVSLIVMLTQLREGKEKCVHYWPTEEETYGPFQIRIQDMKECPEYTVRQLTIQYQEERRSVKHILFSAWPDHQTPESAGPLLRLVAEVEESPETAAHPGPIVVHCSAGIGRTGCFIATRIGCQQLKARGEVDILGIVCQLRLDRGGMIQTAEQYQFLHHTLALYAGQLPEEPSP", "test": "inhibitors of human HePTP phosphatase, […], biochemical, absorbance, leukemia target (AID 521)", "assay_type": "functional"}, "[3]": {"test_system": "Vero", "test": "cells", "assay_type": "functional", "conditions": "Chlorocebus sabaeus"}, "[4]": {"test_system": "Vero", "test": "cells", "assay_type": "functional, cell-based", "conditions": "Chlorocebus sabaeus"}, "[5]": {"test_system": "HeLa", "test": "HeLa cell cytotoxicity, dose response, cytotoxicity control for MITF activator project, CellTiter-Glo luminescence, cherry-pick samples (AID 540259)", "assay_type": "functional, cell-based", "conditions": "Homo sapiens"}, "[6]": {"biological_target": "T2, Zinc finger protein mex-5 (Caenorhabditis elegans, UniProt Q9XUB2)", "T2 sequence (Q9XUB2 whole entry)": "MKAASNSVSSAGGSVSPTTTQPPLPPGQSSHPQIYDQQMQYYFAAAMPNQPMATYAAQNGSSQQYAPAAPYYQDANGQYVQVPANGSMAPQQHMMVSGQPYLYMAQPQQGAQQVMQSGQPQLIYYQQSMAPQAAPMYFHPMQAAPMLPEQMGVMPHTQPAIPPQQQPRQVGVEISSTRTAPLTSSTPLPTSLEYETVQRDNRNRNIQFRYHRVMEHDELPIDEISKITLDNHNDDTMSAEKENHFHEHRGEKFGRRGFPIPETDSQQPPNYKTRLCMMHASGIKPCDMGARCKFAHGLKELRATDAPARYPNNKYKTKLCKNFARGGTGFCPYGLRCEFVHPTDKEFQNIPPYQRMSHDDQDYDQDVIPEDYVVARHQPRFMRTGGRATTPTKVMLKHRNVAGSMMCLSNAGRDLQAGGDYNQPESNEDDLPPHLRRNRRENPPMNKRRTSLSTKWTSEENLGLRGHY", "test": "MEX-5/TCR-2 RNA interaction inhibitors, dose response, biochemical, C. elegans, fluorescence polarization (AID 1960)"}, "[7]": {"biological_target": "T3, RNA-binding protein pos-1 (Caenorhabditis elegans, UniProt G5EF15)", "T3 sequence (G5EF15 whole entry)": "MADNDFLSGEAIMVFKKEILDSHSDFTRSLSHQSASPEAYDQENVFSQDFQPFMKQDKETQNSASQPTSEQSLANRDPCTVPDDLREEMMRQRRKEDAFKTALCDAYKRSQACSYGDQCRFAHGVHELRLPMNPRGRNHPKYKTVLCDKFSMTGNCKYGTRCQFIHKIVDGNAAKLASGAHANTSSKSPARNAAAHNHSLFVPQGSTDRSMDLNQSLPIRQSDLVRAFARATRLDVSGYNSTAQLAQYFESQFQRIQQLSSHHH", "test": "inhibitors of POS-1/mex-3 RNA binding, dose response, biochemical, fluorescence polarization (AID 1964);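 further: purified POS-1 fused to maltose binding protein made in E. coli; potency of compounds blocking POS-1 binding to fluorescent RNA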"}, "[8]": {"biological_target": "Eukaryotic translation initiation factor 4E (Mus musculus, UniProt P63073)", "sequence (P63073 whole entry)": "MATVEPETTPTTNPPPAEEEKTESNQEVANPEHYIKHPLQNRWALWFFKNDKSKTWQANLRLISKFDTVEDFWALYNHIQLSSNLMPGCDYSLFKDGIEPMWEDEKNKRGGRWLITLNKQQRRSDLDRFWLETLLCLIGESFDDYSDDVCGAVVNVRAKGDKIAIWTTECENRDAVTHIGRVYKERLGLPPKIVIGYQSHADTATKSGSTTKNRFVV", "test": "eIF4E–eIF4G protein interaction inhibitors, dose response, biochemical, TR-FRET (AID 855);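 further: potency for disrupting eIF4E binding to eIF4GI seen as loss of FRET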", "assay_type": "functional"}, "[9]": {"biological_target": "Cytochrome P450 2D6 (Homo sapiens, UniProt P10635)", "sequence (P10635 whole entry)": "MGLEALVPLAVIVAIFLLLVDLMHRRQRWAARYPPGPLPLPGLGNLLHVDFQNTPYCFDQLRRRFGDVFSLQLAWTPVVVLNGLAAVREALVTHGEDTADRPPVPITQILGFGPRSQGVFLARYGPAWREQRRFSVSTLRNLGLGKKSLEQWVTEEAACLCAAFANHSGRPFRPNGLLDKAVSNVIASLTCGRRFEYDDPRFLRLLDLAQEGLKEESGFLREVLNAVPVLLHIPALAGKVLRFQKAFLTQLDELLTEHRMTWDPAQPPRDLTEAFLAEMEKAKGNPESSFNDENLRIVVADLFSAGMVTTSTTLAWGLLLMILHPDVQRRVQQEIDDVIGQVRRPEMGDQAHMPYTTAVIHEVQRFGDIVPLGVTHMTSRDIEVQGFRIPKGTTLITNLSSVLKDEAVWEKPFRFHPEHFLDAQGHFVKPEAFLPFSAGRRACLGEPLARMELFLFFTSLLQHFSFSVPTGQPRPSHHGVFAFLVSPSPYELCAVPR"}, "[10]": {"biological_target": "Cytochrome P450 3A4 (Homo sapiens, UniProt P08684)", "sequence (P08684 whole entry)": "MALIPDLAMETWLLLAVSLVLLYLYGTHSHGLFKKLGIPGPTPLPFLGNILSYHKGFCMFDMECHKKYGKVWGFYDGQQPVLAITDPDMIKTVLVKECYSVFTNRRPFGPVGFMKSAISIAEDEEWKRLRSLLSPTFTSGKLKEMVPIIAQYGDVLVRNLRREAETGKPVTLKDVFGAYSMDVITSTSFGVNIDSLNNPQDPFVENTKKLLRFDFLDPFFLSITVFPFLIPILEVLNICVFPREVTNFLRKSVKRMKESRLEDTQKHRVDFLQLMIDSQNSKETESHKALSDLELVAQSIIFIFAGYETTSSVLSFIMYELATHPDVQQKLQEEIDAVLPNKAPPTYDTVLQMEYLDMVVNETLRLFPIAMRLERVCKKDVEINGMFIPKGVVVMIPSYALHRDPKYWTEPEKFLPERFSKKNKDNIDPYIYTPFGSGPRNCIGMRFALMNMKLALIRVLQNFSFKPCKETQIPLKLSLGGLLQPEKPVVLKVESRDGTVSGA"}, "[11]": {"test": "insulin promoter down-regulators in MIN6 cells, imaging, high-content screening, mouse beta cells (AID 1628)", "assay_type": "functional"}, "[12]": {"test": "cytotoxicity in MIN6 insulinoma cells, dose response, cytotoxicity control, cell-based, mouse insulinoma (AID 2122);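 further: confirmatory high-throughput counterscreen run to flag cytotoxic compounds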", "assay_type": "functional"}, "[13]": {"test_system": "INS1", "test": "beta cell apoptosis inhibitors, cytokine rescue, dose response, luminescence, retest (AID 449756);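 further: cell death triggered by IL-1 beta plus TNF-alpha plus IFN-gamma mixture; protective hits raise ATP signal compared with cytokine alone wells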", "assay_type": "functional, cell-based", "conditions": "Rattus norvegicus"}, "[14]": {"biological_target": "T4, Microphthalmia-associated transcription factor (Homo sapiens, UniProt O75030)", "T4 sequence (O75030 whole entry)": "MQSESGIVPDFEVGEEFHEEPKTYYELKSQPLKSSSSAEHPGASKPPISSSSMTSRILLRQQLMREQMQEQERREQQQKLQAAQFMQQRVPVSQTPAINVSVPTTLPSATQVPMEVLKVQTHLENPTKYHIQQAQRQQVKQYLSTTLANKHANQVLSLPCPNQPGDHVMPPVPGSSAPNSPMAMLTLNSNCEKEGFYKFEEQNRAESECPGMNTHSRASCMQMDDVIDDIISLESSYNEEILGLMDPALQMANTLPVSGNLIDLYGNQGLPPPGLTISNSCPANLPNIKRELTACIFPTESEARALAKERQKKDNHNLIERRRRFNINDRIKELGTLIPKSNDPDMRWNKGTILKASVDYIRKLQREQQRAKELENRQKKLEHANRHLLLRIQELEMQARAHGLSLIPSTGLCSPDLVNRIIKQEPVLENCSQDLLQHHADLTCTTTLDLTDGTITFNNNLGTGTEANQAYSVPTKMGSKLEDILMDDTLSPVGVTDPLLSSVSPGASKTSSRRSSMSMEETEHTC", "test": "TRPM1 promoter luciferase signal decrease, dose response, MITF inhibitor project, cell-based, SK-MEL-5, cherry-picked, set 3 (AID 493073)", "assay_type": "functional"}, "[15]": {"biological_target": "T5, Polyadenylate-binding protein 1 (Homo sapiens, UniProt P11940)", "T5 sequence (P11940 whole entry)": "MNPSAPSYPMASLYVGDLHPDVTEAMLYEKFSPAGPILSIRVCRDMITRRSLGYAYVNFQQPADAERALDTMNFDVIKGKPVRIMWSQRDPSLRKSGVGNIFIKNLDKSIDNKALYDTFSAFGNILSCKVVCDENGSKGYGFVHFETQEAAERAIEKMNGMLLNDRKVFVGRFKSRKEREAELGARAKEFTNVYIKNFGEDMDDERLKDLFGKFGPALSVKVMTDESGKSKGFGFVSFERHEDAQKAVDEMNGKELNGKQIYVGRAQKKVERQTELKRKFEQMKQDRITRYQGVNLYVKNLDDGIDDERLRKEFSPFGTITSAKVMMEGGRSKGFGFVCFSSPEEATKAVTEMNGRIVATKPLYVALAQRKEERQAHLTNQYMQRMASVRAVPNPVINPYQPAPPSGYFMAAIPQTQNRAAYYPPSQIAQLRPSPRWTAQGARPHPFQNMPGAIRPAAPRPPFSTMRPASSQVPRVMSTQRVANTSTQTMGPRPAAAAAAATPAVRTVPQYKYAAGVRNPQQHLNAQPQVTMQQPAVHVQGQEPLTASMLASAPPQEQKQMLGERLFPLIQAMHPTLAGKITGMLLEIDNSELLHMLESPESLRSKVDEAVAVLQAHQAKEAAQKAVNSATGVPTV", "test": "PABP1 MLLE–PAM2 binding inhibitor potency, dose response, biochemical, fluorescence polarization, FITC-PAM2 peptide (AID 602259)", "assay_type": "functional", "conditions": "read-out: IC50_Mean"}, "[16]": {"biological_target": "T5, Polyadenylate-binding protein 1", "test": "PABP1 MLLE–PAM2 interaction inhibitors, dose response, miRNA deadenylation inhibitor project, biochemical, fluorescence polarization, Cy5-PAM2 peptide, secondary (AID 602260)", "assay_type": "functional", "conditions": "read-out: IC50_Mean"}, "[17]": {"biological_target": "T6, Heat shock factor protein 1 (Mus musculus, UniProt P38532)", "T6 sequence (P38532 whole entry)": "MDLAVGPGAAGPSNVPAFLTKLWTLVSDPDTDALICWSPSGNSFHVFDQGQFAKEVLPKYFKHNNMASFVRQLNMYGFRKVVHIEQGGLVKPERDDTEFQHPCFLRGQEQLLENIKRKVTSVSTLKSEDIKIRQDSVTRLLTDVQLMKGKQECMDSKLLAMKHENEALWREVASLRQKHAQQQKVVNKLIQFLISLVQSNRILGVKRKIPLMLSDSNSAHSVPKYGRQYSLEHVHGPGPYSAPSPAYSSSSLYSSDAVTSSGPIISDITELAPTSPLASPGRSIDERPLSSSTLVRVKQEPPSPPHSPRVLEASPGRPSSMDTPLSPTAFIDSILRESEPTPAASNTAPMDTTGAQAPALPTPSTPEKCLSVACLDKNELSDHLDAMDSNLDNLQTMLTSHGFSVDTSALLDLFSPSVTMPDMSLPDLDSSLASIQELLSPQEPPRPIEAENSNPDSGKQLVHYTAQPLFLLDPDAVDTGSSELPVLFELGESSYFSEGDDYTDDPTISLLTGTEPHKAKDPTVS", "test": "HSF1 potentiators in luciferase reporter cells, confirmation, cell-based, NIH3T3, luminescence, dose retest (AID 435004);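 further: stress induced by proteasome inhibitor MG132 added 30 min after compound; actives raise luminescence as potentiators of the MG132 stress response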", "assay_type": "functional"}},
  "note": "The source made the active and inactive calls.",
  "data": [
    {"molecule": "CC(O)(CS(=O)(=O)c1cccc(C(F)(F)F)c1)C(=O)Nc1cccc(C(F)(F)F)c1", "note": "(stereo not drawn)", "values": [
      {"measurement": "AC50", "setting": "[1]", "result": "inconclusive"}
    ]},
    {"molecule": "COc1ccc2c3ncn(CC4CCCO4)c(O)c-3nc2c1", "note": "(stereo not drawn)", "values": [
      {"measurement": "IC50", "setting": "[2]", "result": "> 100 µM (not active)"}
    ]},
    {"molecule": "Cc1cc(O)c(C(=O)/C=C/c2ccc(Cl)cc2)c(=O)o1", "values": [
      {"measurement": "CC50", "setting": "[3]", "result": "17.6 µM (active)"},
      {"measurement": "IC50", "setting": "[4]", "result": "> 25 µM (active)"}
    ]},
    {"molecule": "c1ccc2oc(CCc3nc4ccccc4o3)nc2c1", "values": [
      {"measurement": "AC50", "setting": "[5]", "result": "56.3 µM (active)"},
      {"measurement": "EC50", "setting": "[6]", "result": "> 300 µM (not active)"},
      {"measurement": "EC50", "setting": "[7]", "result": "> 300 µM (not active)"}
    ]},
    {"molecule": "COC(=O)n1c(=S)oc2cc(Cl)ccc21", "values": [
      {"measurement": "IC50", "setting": "[8]", "result": "> 64 µM (inactive)"}
    ]},
    {"molecule": "Cc1cc2ncc(-c3ccc(Cl)cc3)c(N)n2n1", "values": [
      {"measurement": "AC50", "setting": "[5]", "result": "68.3 µM (active)"}
    ]},
    {"molecule": "CCCSc1ccc(C(=O)Nc2ccc(F)cc2F)cn1", "values": [
      {"measurement": "AC50", "setting": "[5]", "result": "88.6 µM (active)"}
    ]},
    {"molecule": "CCCC(=O)Nc1ccc(C(=O)Nc2cc(C(F)(F)F)ccc2Cl)cc1", "values": [
      {"measurement": "AC50", "setting": "[9]", "result": "8.91 µM (inconclusive)"},
      {"measurement": "AC50", "setting": "[10]", "result": "15.8 µM (inconclusive)"},
      {"measurement": "AC50", "setting": "[1]", "result": "inconclusive"}
    ]},
    {"molecule": "Cc1ccc(-n2c(Cc3cccn3C)nnc2SCC(=O)NCc2ccco2)cc1", "values": [
      {"measurement": "IC50", "setting": "[2]", "result": "> 100 µM (not active)"}
    ]},
    {"molecule": "O=[N+]([O-])c1cccc2c(N3CCCC3)ccnc12", "values": [
      {"measurement": "IC50", "setting": "[11]", "result": "2.41 µM (active)"},
      {"measurement": "IC50", "setting": "[12]", "result": "1.18 µM (active)"},
      {"measurement": "AC50", "setting": "[13]", "result": "3.17 µM (active)"},
      {"measurement": "AC50", "setting": "[14]", "result": "2.47 µM (active)"}
    ]},
    {"molecule": "CCN(CC)S(=O)(=O)c1ccc(C)c(NC(S)=Nc2cccc(S(=O)(=O)N3CCCCCC3)c2)c1", "values": [
      {"measurement": "IC50", "setting": "[15]", "result": "> 66 µM (inactive)"},
      {"measurement": "IC50", "setting": "[16]", "result": "> 66 µM (inactive)"},
      {"measurement": "CC50", "setting": "[3]", "result": "18.7 µM (active)"},
      {"measurement": "EC50", "setting": "[17]", "result": "> 260 µM (inactive)"},
      {"measurement": "IC50", "setting": "[4]", "result": "> 25 µM (active)"}
    ]}
  ]
}
